Source: patent publication US9902709B2, “Polysubstituted pyridine compound, preparation method, use and pharmaceutical composition” (PEKING UNIVERSITY FOUNDER GROUP CO., LTD., priority 2014, dated 2018)
pIC50: −log10 of the molar value.

Experiments:
[1] = biological target: VEGFR2 (Homo sapiens (Human), UniProt P35968); assay: Inhibitory activity of VEGFR2 kinase (HTRF KinEASE-TK kit); assay type: biochemical
Protocol: HTRF®KinEASE™-TK kit (Cat.62TKOPEC, Cisbio);
VEGFR2 (Cat: k2643, Sigma);
2.1 Preparation of VEGFR2 Kinase Reagent
1× kinase buffer: 1 mL 1× kinase buffer contained 200 μL 5× kinase buffer (Invitrogen), 5 μL, 1M MgCl2, 1 μL 1M DTT, 1 μL 1M MnCl2, and 793 μL ddH2O;
5×TK substrate-biotin and ATP working fluid: as the concentrations of TK substrate-biotin and ATP, please refer to Table 1. TK substrate-biotin and ATP were diluted with 1× kinase buffer to 5 folds of the reaction concentrations;
5× kinase working fluid: as the concentration of VEGFR2 kinase, please refer to Table 1. 5× kinase working fluid was prepared with 1× Kinase buffer;
4× Sa-XL665 working fluid: as the concentration of Sa-XL665 (Cisbio) in the reaction, please refer to Table 1. The 4× Sa-XL665 working fluid was prepared with assay buffer (Cisbio);
4×TK Ab-cryptate working fluid: TK Ab-Cryptate (Cisbio) was 100-fold diluted with assay buffer (Cisbio), as working fluid;
Experimental Procedure of HTRF KinEASE TK Kit
After all the reagents were prepared as described above, the reagents except for enzymes were equilibrated to room temperature, then adding samples were performed.
TK substrate-biotin, ATP, VEGFR2 kinase and a compound at a certain concentration were reacted in 1× kinase buffer at room temperature for 20 minutes. […] To all the reaction wells, 5 μl 4× Sa-XL665 working fluid and 5 μl 4×TK Ab-cryptate working fluid were added. After reacting at room temperature for 1 hours, fluorescence signal (excited at 320 nm, emitted at 665 nm, 615 nm) was detected by ENVISION detector (Perkinelmer). Based on the full-active well and the background signal well, the inhibition rate for each well was calculated, and the average value was used for duplicate wells. The half maximal inhibitory concentration (IC50) for each test compound was fitted by professional software Graphpad PRISM 5.0.
2.3 Data Analysis Emission light ratio (ER)=665 nm emission signal/615 nm emission signal Inhibition rate=(ERpositive−ERsample)/(ERpositive−ERnegative)*100%
HTRF KinEASE TK kit was used to determine the IC50 value of a compound for kinase VEGFR2. The final concentration of the compound started from 100 μM, and 4-fold gradient dilution was carried out to provide 10 concentrations. Duplicate wells were used for each concentration. The final concentration of DMSO was controlled to 1% in the reaction system.

[2] = test system: 786-O humanized renal clear cell xenograft; assay: Tumor-inhibiting effect on 786-O xenograft tumor-bearing mice (Experimental Example 4); assay type: in vivo, SCID-Beige nude mice; settings: QD × 14 days, free form; for TGI: from tumor weight
Protocol: 786-O cells were cultured in RPMI-1640 culture medium containing inactivated 10% fetal bovine serum, 100 Um′ penicillin and 100 μg/ml streptomycin as well as 2 mM glutamine in an incubator at 37° C., 5% CO2. During cell culture, the initial concentration was 5×10^5 cells/ml, and the cells were separated into other bottles every 3 to 4 days when the cells reached a cell density of 100%. The tumor cells in logarithmic growth phase were used in tumor inoculation in vivo.
Female SCID-Beige nude mice (SPF grade) was inoculated subcutaneously at right lateral thorax with 786-O tumor cells re-suspended in PBS at 8×10^6 cells/0.1 ml. When the tumor grew into a volume of 800 mm^3, under aseptic conditions, tumor was peeled off. The well grown tumor tissues were cut into tumor mass with a size of 2×2×2 mm^3, and then were used to inoculate animal subcutaneously. When the tumor grew to a volume of about 100 mm^3, the mice were grouped and administered, 5 groups in total, 8 mice per group.
The volume of tumor was measure by using Vernier caliper twice a week. The long diameter and short diameter of tumor were measured. The volume was calculated by the formula: volume=0.5×long diameter×short diameter^2. After the final measurement, the animal was sacrificed and the tumor was peeled off and weighed. Based on the tumor weight of each group, tumor growth-inhibiting rate (TGI) was calculated. […] The data was effectiveness when TGI≧60% and p<0.05 by statistical analysis.

[3] = test system: human renal cancer 786-O transplantation; assay: Effect on tumor weight of human renal cancer 786-O transplantation nude mice (Comparative Experimental Example 1); assay type: in vivo; settings: QD × 14 days, sorafenib as p-toluenesulfonate, FD-1210005 free form
Excerpt: Comparative Experimental Example 1
The well grown 786-O solid tumor was cut into a mass of an average volume of about 1 mm^3 under aseptic conditions, and was used to inoculate nude mouse at axillary cavity of right forelimb subcutaneously via a trocar. The tumor growth state was observed regularly until the tumor grew into a volume of 250˜550 mm^3.
Animals with tumors of a too large or too small volume and an irregular shape were discarded. Tumor-bearing mice with a tumor volume of 250˜550 mm^3 in a good state were selected, 48 mice in total, and were divided into 6 groups, which were 1 solvent control group, 3 positive control groups, and 2 test sample groups. Both the positive control group and the test sample group were administered intragastrically once a day; the solvent control group was administered with 12.5% ethanol & 12.5% water solution of polyoxyethylene castor oil once a day; intragastrical volume was 10 mL/kg.
In the period of administration, tumor diameter was measured twice every week, tumor volume was calculated, and animal body weight was recorded. Animal state was observed when administered, and abnormal state was recorded.
Animal was sacrificed with CO2, and tumor was peeled off, weighed, and photographed. Animal was subjected to gross anatomy, and organs were observed by eyes to find if they were normal or not.
Observation Indexes: Tumor weight inhibiting rate (IR)=(WC−WT)/WC
Wherein WC and WT represented the average tumor weight of solvent control group and the average tumor weight of drug administration group, respectively.
Experimental data was subjected to calculation and relevant statistic processing by Microsoft Office Excel 2003 software. Unless otherwise specified, data was represented as Mean±Standard Error (Mean±S.E), and t-test is used in the comparison between two groups.

Sequence of VEGFR2 (P35968 20-1356): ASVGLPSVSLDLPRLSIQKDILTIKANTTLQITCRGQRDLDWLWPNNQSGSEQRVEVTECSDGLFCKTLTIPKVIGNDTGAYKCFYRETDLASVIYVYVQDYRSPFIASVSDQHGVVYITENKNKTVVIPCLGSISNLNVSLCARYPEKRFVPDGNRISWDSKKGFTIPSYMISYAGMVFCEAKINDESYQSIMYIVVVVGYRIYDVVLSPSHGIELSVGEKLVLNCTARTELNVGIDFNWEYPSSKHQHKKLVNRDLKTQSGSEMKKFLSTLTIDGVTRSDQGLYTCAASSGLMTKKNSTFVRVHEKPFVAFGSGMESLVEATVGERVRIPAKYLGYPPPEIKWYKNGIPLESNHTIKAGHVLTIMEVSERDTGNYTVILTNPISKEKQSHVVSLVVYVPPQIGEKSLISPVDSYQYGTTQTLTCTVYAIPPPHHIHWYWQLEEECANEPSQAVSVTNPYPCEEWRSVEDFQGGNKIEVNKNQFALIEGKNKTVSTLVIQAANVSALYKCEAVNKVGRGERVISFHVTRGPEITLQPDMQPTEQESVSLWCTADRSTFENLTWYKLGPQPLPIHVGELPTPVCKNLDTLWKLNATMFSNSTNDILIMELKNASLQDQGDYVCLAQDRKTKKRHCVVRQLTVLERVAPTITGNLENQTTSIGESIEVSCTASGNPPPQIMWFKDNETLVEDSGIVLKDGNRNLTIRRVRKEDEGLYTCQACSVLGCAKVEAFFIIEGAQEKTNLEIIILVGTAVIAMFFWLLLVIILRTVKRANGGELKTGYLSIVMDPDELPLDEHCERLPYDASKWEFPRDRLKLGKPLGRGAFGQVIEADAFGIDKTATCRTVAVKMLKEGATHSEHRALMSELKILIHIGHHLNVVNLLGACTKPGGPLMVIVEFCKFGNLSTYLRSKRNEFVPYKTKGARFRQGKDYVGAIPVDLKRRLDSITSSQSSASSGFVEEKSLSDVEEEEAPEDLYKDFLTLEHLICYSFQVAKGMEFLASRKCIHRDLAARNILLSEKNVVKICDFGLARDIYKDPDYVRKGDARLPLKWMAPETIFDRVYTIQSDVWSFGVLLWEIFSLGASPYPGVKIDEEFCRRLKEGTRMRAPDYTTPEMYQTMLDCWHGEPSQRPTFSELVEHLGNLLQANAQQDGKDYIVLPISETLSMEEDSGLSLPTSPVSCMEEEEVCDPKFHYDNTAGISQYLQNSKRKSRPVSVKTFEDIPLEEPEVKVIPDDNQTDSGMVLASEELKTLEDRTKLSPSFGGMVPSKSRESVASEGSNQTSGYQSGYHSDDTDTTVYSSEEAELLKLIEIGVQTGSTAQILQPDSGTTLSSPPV

Cn1cc(-c2nccc(Oc3ccc(NC(=O)Nc4ccc(Cl)c(C(F)(F)F)c4)cc3)c2Cl)cn1 [Example 2, 1-(4-chloro-3-(trifluoromethyl)phenyl)-3-(4-(3-chloro-2-(1-methyl-pyrazol-4-yl)-pyridin-4-yl-oxy)phenyl)urea]
pIC50 ([1]; ATP 5 μM, 20 minutes, room temperature): 7.26
inhibitory activity as fold of that of Comparative compound 2 ([1]; VEGFR2 kinase): 3.4 fold
inhibitory activity as fold of that of Sorafenib ([1]; VEGFR2 kinase): 1.61 fold
IC50 value as fold of that of Comparative compound 2 ([1]; VEGFR2 kinase, ratio of IC50): 0.34 fold
IC50 value as fold of that of Sorafenib (free base) ([1]; VEGFR2 kinase, ratio of IC50): 0.62 fold
Tumor weight Mean ± S.E ([2]; 10 mg/kg po): 37 ± 20 mg
TGI ([2]; 10 mg/kg po): 82%
Tumor weight Mean ± S.E ([2]; 20 mg/kg po): 32 ± 15 mg
TGI ([2]; 20 mg/kg po): 85%
Tumor weight Mean ± S.E ([2]; 40 mg/kg po): 16 ± 12 mg
TGI ([2]; 40 mg/kg po): 92%

CNC(=O)c1cc(Oc2ccc(NC(=O)Nc3ccc(Cl)c(C(F)(F)F)c3)cc2)ccn1 [Comparative example 1, Sorafenib, reference compound]
Tumor weight Mean ± S.E ([3]; 20 mg/kg po): 0.5239 ± 0.1038 g
Tumor-inhibiting rate ([3]; 20 mg/kg po): 44.01%
Tumor weight Mean ± S.E ([3]; 60 mg/kg po): 0.4407 ± 0.0581 g
Tumor-inhibiting rate ([3]; 60 mg/kg po): 52.89%
